Experimental data as given in article PMC10931745 (International Journal of Molecular Sciences, 2024).

How the values were obtained:
[1] = tested on: human mammary epithelial cell line MCF-10A; assay: MTT assay, toxicity towards normal cells; type: cell-based; conditions: 72 h
Experimental: (§1) The cell lines used were purchased from American Type Culture Collection (ATCC, Manassas, VA, USA). Human breast cancer cells MCF-7 and MDA-MB-231, human mammary epithelial cell line MCF-10A, and mouse BALB/3T3 embryonic fibroblasts were cultured as already described by some of us. The murine macrophage cell line RAW 264.7 was maintained in Dulbecco’s Modified Eagle’s Medium (DMEM) high glucose (4.5 g/L) supplemented with 10% Fetal Bovine Serum (FBS), 1% L-glutamine, and 100 units/mL of penicillin/streptomycin. The cell cultures were maintained at the temperature of 37 °C in a humidified atmosphere containing 5% CO2.
(§2) The 3-(4,5-dimethylthiazol-2-yl)-2,5-diphenyl-2H-tetrazolium bromide (MTT) assay (Sigma Aldrich (St. Louis, MO, USA)) was carried out to study the in vitro anticancer activities of the complexes, following the previously reported protocol. The cells were incubated for 72 h with different concentrations of the tested compounds (0.1, 1, 10, 25, 50, 100, and 500 µM) and the IC50 values were calculated from the percent (%) of control using the software GraphPad Prism 9 (GraphPad Software, La Jolla, CA, USA).

[2] = DPPH radical scavenging assay; type: biochemical
Experimental: The radical scavenging properties of the complexes on the 1,1-diphenyl-2-picrylhydrazil (DPPH) radical were evaluated as previously described.
All the complexes were used at different concentrations (10, 25, 50, 100, and 200 µg/mL) and the DPPH radical scavenging activity, measured at 517 nm using a microplate reader, was expressed as inhibition percentages (%IDPPH) compared to the initial concentration of DPPH (control) according to the following expression:(2) IDPPH (%)=ABSCTRL−ABSsample/ABSCTRL∗100 where ABSCTRL and ABSsample are the absorbance at 517 nm in the control and in the presence of samples, respectively.
The obtained IDPPH percentages allowed us to calculate the IC50 values using Graph-Pad Prism 9 software (GraphPad Inc., San Diego, CA, USA). Trolox was employed as a positive control, while caffeine and theophylline were reference compounds.

[3] = tested on: NO production in LPS-stimulated RAW 264.7 macrophages; assay: Griess assay, NO production; type: cell-based, murine; conditions: 25 µM, LPS 1 µg/mL, 24 h
Experimental: The Griess assay was performed using RAW 264.7 murine macrophages to study the anti-inflammatory activity in terms of NO production. RAW 264.7 cells were plated in the 48 multi-wells and, after 24 h, treated with the tested molecules (25 µM) and the lipopolysaccharide (LPS, Sigma Aldrich, Milan, Italy) at a final concentration of 1 µg/mL. LPS is able to induce inflammation by stimulating NO production in immune system cells such as macrophages. After 24 h, the cell medium Griess reagent (Sigma Aldrich, Milan, Italy) was mixed in with a ratio of 1:1. The Griess reagent allowed for the quantification of NO released by macrophages in the treatment medium. The mixture was left for 30 min under agitation and, subsequently, the absorbance at 540 nm was measured using a multiplate reader. The obtained absorbance allowed us to calculate the NO production % compared to the absorbance obtained for the positive control, in which the cells were treated with LPS.

[4] = tested on: NF-κB localization in RAW 264.7 macrophages; assay: Immunofluorescence, NF-κB localization; type: cell-based, murine; conditions: 25 µM, co-treated with LPS 1 µg/mL
Experimental: (§3) After a PBS wash, cells were fixed using cold methanol (15 min at −20 °C) and incubated overnight at 4 °C with the primary antibodies raised against NF-κB, iNOS, TNF-α, and COX-1 and 2 (Santa Cruz Biotechnology Inc., Santa Cruz, CA, USA) diluted in BSA 2%, as previously described. […] DAPI (Sigma Aldrich, Milan, Italy) 0.2 µg/mL was added for 10 min for nuclei counterstaining. A fluorescence microscope (Leica DM 6000) was used for visualizing images, and LAS-X software 3.5.7.23225 was used for acquisition and processing.

[5] = tested on: iNOS expression in RAW 264.7 macrophages; assay: Immunofluorescence, iNOS expression; type: cell-based, murine; conditions: 25 µM, co-treated with LPS 1 µg/mL
Experimental: as §3

[6] = tested on: MCF-7; assay: MTT cell viability assay; type: cell-based, human; conditions: 72 h
Experimental: as §1, §2

[7] = tested on: MDA-MB-231; assay: MTT cell viability assay; type: cell-based, human; conditions: 72 h
Experimental: as §1, §2

[8] = ABTS radical scavenging assay; type: biochemical
Experimental: The radical scavenging properties of the complexes on a 2,20-azino-bis(3-ethylbenzothiazoline-6-sulfonate) radical cation (ABTS^+) were evaluated as previously described.
All the complexes were used at different concentrations (5, 10, 25, 50, and 100 µg/mL) and the ABTS radical scavenging activity, measured at 730 nm using a microplate reader, was expressed as inhibition percentages (%IABTS) compared tothe control, according to the following expression:(3) IABTS (%)=ABSCTRL−ABSsample/ABSCTRL∗100 where ABSCTRL and ABSsample are the absorbance at 730 nm in the control and in the presence of samples, respectively.
IC50 values were calculated from the %IABTS using GraphPad Prism 9 software (GraphPad Inc., San Diego, CA, USA). Trolox was employed as a positive control, while caffeine and theophylline were reference compounds.

[9] = tested on: Staphylococcus aureus (ATCC 23235); assay: MIC/MBC broth dilution; type: cell-based
Experimental: (§4) The bacterial strains used for MIC and MBC value determinations expressed as µg/mL by the broth dilution method, according to CLSI guidelines, were the following:
(§5) -3 Gram-positive: Enterococcus faecalis (ATCC® 19433^TM), Staphylococcus aureus (ATCC® 23235^TM), and Staphylococcus epidermidis (ATCC® 14990™).
(§6) Increasing concentrations of the complexes (50, 70, 100, 150, and 200 µg/mL) were incubated with bacteria plated in 96-well microplates at 37 °C overnight as already reported, and then bacterial growth was checked at a wavelength of 600 nm using a Multiskan spectrophotometer (model Multiskan Ex Microplate; Thermo Scientific, Nyon, Switzerland). MIC or MBC values were obtained by comparing cell density with a positive control (bacterial cells grown in LB medium were added with only the vehicle, DMSO). The results were representative of three independent experiments performed in triplicate. Ampicillin, Gentamicin, and Cephalosporin (Sigma Aldrich A9393) were used as the control for strain sensitivity.

[10] = tested on: Staphylococcus epidermidis (ATCC 14990); assay: MIC/MBC broth dilution; type: cell-based
Experimental: as §4, §5, §6

[11] = tested on: Enterococcus faecalis (ATCC 19433); assay: MIC/MBC broth dilution; type: cell-based
Experimental: as §4, §5, §6

[12] = tested on: COX-1 expression in RAW 264.7 macrophages; assay: Immunofluorescence, COX-1 expression; type: cell-based, murine; conditions: 25 µM, co-treated with LPS 1 µg/mL
Experimental: as §3

[13] = tested on: Klebsiella pneumoniae (ATCC 13883); assay: MIC/MBC broth dilution; type: cell-based
Experimental: as §4
(§7) -4 Gram-negative: Escherichia coli (ATCC® 25922^TM) and Klebsiella pneumoniae (ATCC® 13883^TM);
as §6

[14] = tested on: Escherichia coli (ATCC 25922); assay: MIC/MBC broth dilution; type: cell-based
Experimental: as §4, §7, §6

[15] = tested on: COX-2 expression in RAW 264.7 macrophages; assay: Immunofluorescence, COX-2 expression; type: cell-based, murine; conditions: 25 µM, co-treated with LPS 1 µg/mL
Experimental: as §3

[16] = tested on: Pseudomonas aeruginosa (ATCC 15442); assay: MIC/MBC broth dilution; type: cell-based
Experimental: as §4
as §6, with “The results were representative of three independent experiments performed in triplicate.” left out

[17] = tested on: Salmonella typhimurium (ATCC 14028); assay: MIC/MBC broth dilution; type: cell-based
Experimental: as §4
as §6, with “The results were representative of three independent experiments performed in triplicate.” left out

[18] = tested on: ROS production in BALB/3T3 fibroblasts; assay: Intracellular ROS detection with DCFH2-DA; type: cell-based, murine; conditions: 25 µM, 24 h pre-treatment
Experimental: In vitro detection of intracellular ROS on fibroblasts BALB/3T3 using DCFH2-DA The assay to evaluate the in vitro antioxidant activity was carried out using the murine BALB/3T3 fibroblasts that were plated in a white 96 MW and then treated with the complexes at a concentration of 25 µM for 24 h. Menadione (25 µM) was then added for 15 min to induce ROS production. After treatment, the cells were washed with PBS and treated with 25 μM 2′-7′-dichlorofluorescein diacetate (DCFH2-DA, Sigma-Aldrich, St. Louis, MO, USA), and then they were incubated for 40 min at 37 °C and 5% CO2. The probe DCFH2-DA penetrates cells where it is […] into a non-fluorescent form (DCFH2) by endogenous esterases. In the presence of intracellular ROS, non-fluorescent H2DCF is oxidized to the fluorescent 2′,7′-dichlorofluorescein (DCF). Then, the cells were washed with PBS and the fluorescence was detected using a multiplate reader (λex = 485 nm, λem = 535 nm). Based on the obtained fluorescence values, the ROS production inhibition % (IROS) vs. menadione was calculated using the following formula:(1) IROS vs. Menadione (%)=FMen−FSample/FMen∗100 where FMen represents the mean fluorescence obtained after treatment with menadione alone and Fsample represents the mean fluorescence obtained after the co-treatment with the complexes and menadione.

| Compound | IC50 [1] | IC50 [2] | Reduction in NO production [3] | NF-κB intracellular localization [4] | iNOS expression level [5] | IC50 [6] | IC50 [7] | IC50 [8] | M.B.C. S. aureus [9] | M.I.C. S. aureus [9] | M.B.C. S. epidermidis [10] | M.I.C. S. epidermidis [10] | M.B.C. E. faecalis [11] | M.I.C. E. faecalis [11] | COX-1 protein expression level [12] | M.B.C. K. pneumoniae [13] | M.I.C. K. pneumoniae [13] | Reduction in COX-2 expression (fluorescence) [15] | M.I.C. P. aeruginosa [16] | M.I.C. S. typhimurium [17] | further results |
| --- | --- | --- | --- | --- | --- | --- | --- | --- | --- | --- | --- | --- | --- | --- | --- | --- | --- | --- | --- | --- | --- |
| CC(=O)[O][Ag-][c]1n(C)c2c(c(=O)n(C)c(=O)n2C)[n+]1CCO [AgL3OAc, 1,3,7-Trimethylxanthin-9-[(2-hydroxy)ethyl)-8-ylidene]Ag(I) Acetate] | > 100 µM | > 500 µM | about 14.35% | mostly cytoplasmic | net reduction in iNOS expression | > 100 µM | > 100 µM | > 500 µM | > 200 µg/mL | 125 µg/mL | > 125 µg/mL | 100 µg/mL | > 200 µg/mL | 150 µg/mL | no difference in protein expression level | > 200 µg/mL | 150 µg/mL | about 60% | 150 µg/mL | 150 µg/mL | M.B.C. E. coli [14]: > 200 µg/mL; M.B.C. P. aeruginosa [16]: > 200 µg/mL; M.B.C. S. typhimurium [17]: > 200 µg/mL |
| 1,3,7-Trimethylxanthin-9-[(2-hydroxy-2-phenyl)ethyl-8-ylidene]Au(I) Acetate [AuL1OAc] | > 100 µM | > 500 µM | – | – | – | > 100 µM | > 100 µM | > 500 µM | – | >200 µg/mL | – | >200 µg/mL | – | >200 µg/mL | – | – | >200 µg/mL | – | >200 µg/mL | >200 µg/mL | ROS level reduction vs. menadione [18]: ~54%; M.I.C. E. coli [14]: >200 µg/mL |
| CC(=O)[O][Ag-][c]1n(C)c2c(c(=O)n(C)c(=O)n2C)[n+]1CC(O)c1ccccc1 (racemic) [AgL1OAc, 1,3,7-Trimethylxanthin-9-[(2-hydroxy-2-phenyl)ethyl-8-ylidene]Ag(I) Acetate] | > 100 µM | > 500 µM | – | – | – | 39.6 ± 0.8 µM | 32.3 ± 0.9 µM | 149.2 ± 0.7 µM | > 150 µg/mL | 125 µg/mL | > 150 µg/mL | 125 µg/mL | > 200 µg/mL | 150 µg/mL | – | > 150 µg/mL | 125 µg/mL | – | 125 µg/mL | 150 µg/mL | ROS level reduction vs. menadione [18]: about 61%; M.B.C. E. coli [14]: > 150 µg/mL; M.B.C. P. aeruginosa [16]: > 150 µg/mL; M.B.C. S. typhimurium [17]: > 200 µg/mL |
| Cn1c(=O)c2c(n(C)[c]([Au-][I])[n+]2CCO)n(C)c1=O [AuL3] | > 100 µM | > 500 µM | ~14.12% | mostly cytoplasmic | – | > 100 µM | > 100 µM | > 500 µM | – | >200 µg/mL | – | >200 µg/mL | – | >200 µg/mL | no difference in protein expression level | – | >200 µg/mL | about 40% | >200 µg/mL | >200 µg/mL | M.I.C. E. coli [14]: >200 µg/mL |
| COc1ccc2c(c1)c(CC(=O)O)c(C)n2C(=O)c1ccc(Cl)cc1 [indomethacin, reference compound] | – | – | about 11.23% | higher cytoplasmic localization of NF-κB | lower, reaching those obtained with the CTRL cells | – | – | – | – | – | – | – | – | – | no difference in protein expression level | – | – | about 30% | – | – | – |
